ChEMBL document CHEMBL1130863, “N3-methyl-mafosfamide as a chemically stable, alternative prodrug of mafosfamide” (1998)

Experiments:
NIH3T3 = experiment: In vitro cytotoxicity was evaluated in mouse embryo BALB/c 3T3 cells; assay type: functional; conditions: read-out: LC50 (the source's name)
L1210 = experiment: Compound was evaluated against L1210 leukemia in mice expressed as increase of life span; Compound was active.; assay type: functional, Mus musculus

With CN1C(SCCS(=O)(=O)O)CCOP1(=O)N(CCCl)CCCl (stereo not drawn) the CC50 (NIH3T3) was 3.6 µM and the ILS (L1210) was >29%.
O=P1(N(CCCl)CCCl)NCCCO1 (stereo not drawn) [CYCLOPHOSPHAMIDE ANHYDROUS] was tested, and the CC50 (NIH3T3) was 37.6 µM.
